Our source for the IC50 values is patent US20160333006A1, “ARYL LACTA KINASE INHIBITORS” (Bristol-Myers Squibb Company, priority 2014, published 2016).

T1 sequence (Q2M2I8 whole entry): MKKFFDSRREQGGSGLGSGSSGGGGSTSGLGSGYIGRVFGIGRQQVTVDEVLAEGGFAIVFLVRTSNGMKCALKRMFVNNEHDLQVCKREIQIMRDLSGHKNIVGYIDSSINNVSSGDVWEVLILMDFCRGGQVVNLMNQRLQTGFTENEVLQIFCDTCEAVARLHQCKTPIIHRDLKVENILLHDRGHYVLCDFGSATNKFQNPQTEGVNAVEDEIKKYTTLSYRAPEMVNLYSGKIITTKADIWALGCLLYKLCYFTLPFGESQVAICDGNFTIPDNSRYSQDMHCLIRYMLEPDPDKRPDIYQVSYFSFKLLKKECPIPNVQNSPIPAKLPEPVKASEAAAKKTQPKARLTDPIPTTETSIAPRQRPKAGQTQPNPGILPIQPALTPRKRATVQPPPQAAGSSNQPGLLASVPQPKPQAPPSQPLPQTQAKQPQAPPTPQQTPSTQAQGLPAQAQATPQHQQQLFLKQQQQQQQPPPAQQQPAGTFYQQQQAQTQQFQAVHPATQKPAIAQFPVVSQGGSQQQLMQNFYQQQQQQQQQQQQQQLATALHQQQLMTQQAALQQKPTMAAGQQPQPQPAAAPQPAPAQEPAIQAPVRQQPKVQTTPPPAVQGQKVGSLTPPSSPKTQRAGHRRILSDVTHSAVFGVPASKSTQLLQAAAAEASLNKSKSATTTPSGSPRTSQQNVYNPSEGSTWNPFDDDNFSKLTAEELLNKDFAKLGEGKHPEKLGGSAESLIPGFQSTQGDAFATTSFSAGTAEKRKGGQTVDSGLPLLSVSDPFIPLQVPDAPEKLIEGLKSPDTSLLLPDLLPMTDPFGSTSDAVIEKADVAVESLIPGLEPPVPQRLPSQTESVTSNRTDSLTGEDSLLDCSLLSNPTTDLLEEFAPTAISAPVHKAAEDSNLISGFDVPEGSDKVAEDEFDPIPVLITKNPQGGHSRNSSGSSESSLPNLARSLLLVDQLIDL

This test addresses T1, GST-Xa-hAAK1 (Homo sapiens, UniProt Q2M2I8).
T1 construct: made in house
The test is described as follows: AAK1 kinase assay. In kind it is biochemical. To be noted: ATP 22 μM; given as IC50 range. How it is done: The assays were performed in U-bottom 384-well plates. […] The reactions were initiated by the combination of bacterially expressed, GST-Xa-hAAK1 with substrates and test compounds. The reactions were incubated at room temperature for 3 hours and terminated by adding 60 μl of 35 mM EDTA buffer to each sample. The reactions were analyzed on the Caliper LabChip 3000 (Caliper, Hopkinton, Mass.) by electrophoretic separation of the fluorescent substrate and phosphorylated product. […] Compounds were dissolved at 10 mM in dimethylsulfoxide (DMSO) and evaluated at eleven concentrations. IC50 values were derived by non-linear regression analysis.
`Cc1nccc2c1c(=O)n(C)c1cc(OCC(N)CC(C)C(F)(F)F)ccc21` (single isomer, unassigned) [Example 87]: the IC50 (usually the concentration needed to halve the response being measured) is 1 to 10 nM.

Consider `Cc1nccc2c1c(=O)n(C)c1cc(OCC(N)CC(C)C(F)(F)F)ccc21` (single isomer, unassigned) [Example 88], for which the IC50 lay in the range of 1 to 10 nM.

With `Cn1c(=O)c2cnccc2c2ccc(OCC(N)CC(F)(F)F)cc21` (single isomer, unassigned) [Example 135, 8-(2-amino-4,4,4-trifluorobutoxy)-6-methylbenzo[c][2,7]naphthyridin-5(6H)-one], the IC50 is 10 to 100 nM.

In the case of `Cn1c(=O)c2cnccc2c2ccc(OCC(N)CC(F)(F)F)cc21` (single isomer, unassigned) [Example 136, 8-(2-amino-4,4,4-trifluorobutoxy)-6-methylbenzo[c][2,7]naphthyridin-5(6H)-one], the half-inhibitory concentration (IC50) was in the range of 1 to 10 nM.

On to `Cc1cc2c3ccncc3c(=O)n(C)c2cc1OC[C@@H](N)CC(C)C` [Example 4, (S)-8-((2-amino-4-methylpentyl)oxy)-6,9-dimethylbenzo[c][2,7]naphthyridin-5(6H)-one], for which the IC50 was in the range of 1 to 10 nM.

Turning to `CC(C)C[C@H](N)COc1cc2c(cc1C#N)c1ccncc1c(=O)n2C` [Example 5, (S)-8-((2-amino-4-methylpentyl)oxy)-6-methyl-5-oxo-5,6 dihydrobenzo[c][2,7]naphthyridine-9-carbonitrile], the half-maximal inhibitory concentration (IC50) was in the range of 1 to 10 nM.

For `CC(C)C[C@H](N)COc1c(Cl)cc2c3ccncc3c(=O)n(C)c2c1Cl` [Example 10, (S)-8-((2-amino-4-methylpentyl)oxy)-7,9-dichloro-6-methylbenzo[c][2,7]naphthyridin-5(6H) one], the concentration for half-maximal inhibition (IC50) lay in the range of 10 to 100 nM.

As for `Cc1nccc2c1c(=O)n(C)c1cc(OC[C@@H](N)CC(C)C)c(C(F)F)cc21` [Example 27, (S)-8-((2-amino-4-methylpentyl)oxy)-9-(difluoromethyl)-4,6-dimethylbenzo[c][2,7]naphthyridin-5(6H)-one], the concentration for half-maximal inhibition (IC50) was below 1 nM.

With `CC(C)C[C@@H](COc1ccc2c3ccncc3c(=O)n(C)c2c1)N(C)C` [Example 39, (S)-8-((2-(dimethylamino)-4-methylpentyl)oxy)-6-methylbenzo[c][2,7]naphthyridin-5(6H)-one], the IC50 was in the range of 10 to 100 nM.

For the compound `COc1nccc2c1c(=O)n(C)c1cc(OC[C@@H](N)CC(C)C)ccc21` [Example 42, (S)-8-(2-amino-4-methylpentyloxy)-4-methoxy-6-methylbenzo[c][2,7]naphthyridin-5(6H)-one], the 50% inhibitory concentration (IC50) was in the range of 100 to 2000 nM.

On to `CC(C)C[C@H](N)COc1cc2c(cc1Cl)c1ccncc1c(=O)n2C` [Example 43, (S)-8-((2-amino-4-methylpentyl)oxy)-9-chloro-6-methylbenzo[c][2,7]naphthyridin-5(6H)-one], for which the IC50 lay within 1 to 10 nM.

Consider `Cc1nccc2c1c(=O)[nH]c1cc(OC[C@@H](N)CC(C)C)c(Br)cc12` [Example 49, (S)-8-(2-amino-4-methylpentyloxy)-9-bromo-4-methylbenzo[c][2,7]naphthyridin-5(6H)-one], for which the IC50 lay in the range of 1 to 10 nM.

Take `CC(C)C[C@H](N)COc1cc2c(cc1-c1ccc(F)cc1)c1ccncc1c(=O)n2C` [Example 51, (S)-8-((2-amino-4-methylpentyl)oxy)-9-(4-fluorophenyl)-6 methylbenzo[c][2,7]naphthyridin-5(6H)-one]: the IC50 lay in the range of 100 to 2000 nM.

For `CN[C@H](COc1cc2c(cc1C#N)c1ccnc(C)c1c(=O)n2C)CC(C)C` [Example 65, (S)-4,6-dimethyl-8-(4-methyl-2-(methylamino)pentyloxy)-5-oxo-5,6-dihydrobenzo[c][2,7]naphthyridine-9-carbonitrile], the half-inhibitory concentration (IC50) was below 1 nM.

With `Cc1nccc2c1c(=O)[nH]c1cc(OC[C@@H](N)CC(C)C)ccc12` [Example 77, (S)-8-(2-amino-4-methylpentyloxy)-4-methylbenzo[c][2,7]naphthyridin-5(6H)-one], the half-inhibitory concentration (IC50) fell in the range of 1 to 10 nM.

`COCCn1c(=O)c2c(C)nccc2c2cc(Cl)c(OC[C@@H](N)CC(C)C)cc21` [Example 79, (S)-8-((2-amino-4-methylpentyl)oxy)-9-chloro-6-(2-methoxyethyl)-4-methylbenzo[c][2,7]naphthyridin-5(6H)-one]: the IC50 is 1 to 10 nM.

Consider `Cc1nccc2c1c(=O)n(C)c1c(F)c(OC[C@@H](N)CC(C)C)ccc21` [Example 81, (S)-8-(2-amino-4-methylpentyloxy)-7-fluoro-4,6-dimethylbenzo[c][2,7]naphthyridin-5(6H)-one], for which the IC50 lay in the range of 100 to 2000 nM.

`COC(=O)c1cc2c3ccnc(C)c3c(=O)n(C)c2cc1OC[C@@H](N)CC(C)C` [Example 84, (S)-methyl 8-((2-amino-4-methylpentyl)oxy)-4,6-dimethyl-5-oxo-5,6-dihydrobenzo[c][2,7]naphthyridine-9-carboxylate]: the 50% inhibitory concentration (IC50) is 1 to 10 nM.

As for `CC(C)C[C@H](N)COc1ccc2c3c(F)cncc3c(=O)n(C)c2c1` [Example 85, (S)-8-((2-amino-4-methylpentyl)oxy)-1-fluoro-6-methylbenzo[c][2,7]naphthyridin-5(6H)-one], the IC50 lay within 10 to 100 nM.

Regarding `Cc1nccc2c1c(=O)n(C)c1cc(OC[C@@H](N)CC(C)C)c(C(N)=O)cc21` [Example 94, (S)-8-((2-amino-4-methylpentyl)oxy)-4,6-dimethyl-5-oxo-5,6-dihydrobenzo[c][2,7]naphthyridine-9-carboxamide], the IC50 fell in the range of 10 to 100 nM.

With `COc1cncc2c(=O)n(C)c3cc(OC[C@@H](N)CC(C)C)ccc3c12` [Example 98, (S)-8-((2-amino-4-methylpentyl)oxy)-1-methoxy-6-methylbenzo[c][2,7]naphthyridin-5(6H)-one], the half-inhibitory concentration (IC50) was 100 to 2000 nM.

With `COc1c(OC[C@@H](N)CC(C)C)ccc2c1[nH]c(=O)c1c(C)nccc12` [Example 99, (S)-8-(2-amino-4-methylpentyloxy)-7-methoxy-4-methylbenzo[c][2,7]naphthyridin-5(6H)-one], the IC50 lay within 100 to 2000 nM.

`COCc1cc2c3ccnc(C)c3c(=O)n(C)c2cc1OC[C@@H](N)CC(C)C` [Example 104, (S)-8-(2-amino-4-methylpentyloxy)-9-(methoxymethyl)-4,6-dimethylbenzo[c][2,7]naphthyridin-5(6H)-one]: the IC50 lay in the range of 10 to 100 nM.

In the case of `Cc1nccc2c1c(=O)n(C)c1c(F)c(OC[C@@H](N)CC(C)C)c(Cl)cc21` [Example 107, (S)-8-((2-amino-4-methylpentyl)oxy)-9-chloro-7-fluoro-4,6-dimethylbenzo[c][2,7]naphthyridin-5(6H)-one], the 50% inhibitory concentration (IC50) was 1 to 10 nM.

Regarding `CC(C)Cc1cc2c3ccncc3c(=O)n(C)c2cc1OC[C@@H](N)CC(C)C` [Example 110, (S)-8-((2-amino-4-methylpentyl)oxy)-9-isobutyl-6-methylbenzo[c][2,7]naphthyridin-5(6H)-one], the IC50 lay in the range of 10 to 100 nM.

For `Cn1c(=O)c2cnccc2c2ccc(OCC(N)CCC(F)(F)F)cc21` (stereo not drawn) [Example 111, 8-((2-amino-5,5,5-trifluoropentyl)oxy)-6-methylbenzo[c][2,7]naphthyridin-5(6H)-one], the half-inhibitory concentration (IC50) lay within 1 to 10 nM.

In the case of `Cn1c(=O)c2cnccc2c2ccc(OCC(N)CCC(F)(F)F)cc21` (stereo not drawn) [Example 112, 8-((2-amino-5,5,5-trifluoropentyl)oxy)-6-methylbenzo[c][2,7]naphthyridin-5(6H)-one], the IC50 lay in the range of 1 to 10 nM.

As for `Cc1nccc2c1c(=O)n(C)c1cc(OCC(N)CCC(F)(F)F)ccc21` (stereo not drawn) [Example 123, 8-((2-amino-5,5,5-trifluoropentyl)oxy)-4,6-dimethylbenzo[c][2,7]naphthyridin-5(6H)-one], the IC50 lay within 10 to 100 nM.

As to `Cc1nccc2c1c(=O)n(C)c1cc(OCC(N)CCC(F)(F)F)c(Cl)cc21` (stereo not drawn) [Example 124, 8-((2-amino-5,5,5-trifluoropentyl)oxy)-9-chloro-4,6-dimethylbenzo[c][2,7]naphthyridin-5(6H)-one], the IC50 was below 1 nM.

`Cc1nccc2c1c(=O)n(C)c1cc(OC[C@@H](N)CC(C)C)c(C3CC3)cc21` [Example 125, (S)-8-((2-amino-4-methylpentyl)oxy)-9-cyclopropyl-4,6-dimethylbenzo[c][2,7]naphthyridin-5(6H)-one]: the IC50 fell in the range of 1 to 10 nM.

Turning to `Cc1nccc2c1c(=O)n(C)c1cc(OCC(N)CCC(F)(F)F)c(Br)cc21` (stereo not drawn) [Example 128, 8-((2-amino-5,5,5-trifluoropentyl)oxy)-9-bromo-4,6-dimethylbenzo[c][2,7]naphthyridin-5(6H)-one], the IC50 was below 1 nM.

For the compound `Cc1nccc2c1c(=O)n(C)c1cc(OC[C@@H](N)CC(C)C)c(C(C)C)cc21` [Example 130, (S)-8-((2-amino-4-methylpentyl)oxy)-9-isopropyl-4,6-dimethylbenzo[c][2,7]naphthyridin-5(6H)-one], the 50% inhibitory concentration (IC50) lay in the range of 10 to 100 nM.

Regarding `COCCn1c(=O)c2c(C)nccc2c2cc(Br)c(OC[C@@H](N)CC(C)C)cc21` [Example 131, (S)-8-((2-amino-4-methylpentyl)oxy)-9-bromo-6-(2-methoxyethyl)-4-methylbenzo[c][2,7]naphthyridin-5(6H)-one], the IC50 is 10 to 100 nM.

Take `Cc1nccc2c1c(=O)n(CCO)c1cc(OC[C@@H](N)CC(C)C)c(Cl)cc21` [Example 132, (S)-8-((2-amino-4-methylpentyl)oxy)-9-chloro-6-(2-hydroxyethyl)-4-methylbenzo[c][2,7]naphthyridin-5(6H)-one]: the IC50 is below 1 nM.

Regarding `Cc1nccc2c1c(=O)n(C)c1c(F)c(OC[C@@H](N)CC(C)C)c(Br)cc21` [Example 134, (S)-8-((2-amino-4-methylpentyl)oxy)-9-bromo-7-fluoro-4,6-dimethylbenzo[c][2,7]naphthyridin-5(6H)-one], the IC50 was 10 to 100 nM.

`Cc1nccc2c1c(=O)n(C)c1cc(OCC(N)CC(F)(F)F)c(Br)cc21` (stereo not drawn) [Example 137, 8-(2-amino-4,4,4-trifluorobutoxy)-9-bromo-4,6-dimethylbenzo[c][2,7]naphthyridin-5(6H)-one]: the IC50 was in the range of 1 to 10 nM.
